Assay results reported in patent publication US8809333B2, “Imidazole, pyrazole, and triazole derivatives useful as antibacterial agents” (Pfizer Inc., priority 2011, dated 2014).
Converted amounts (≈) assume the structure as drawn. Where two headings read alike, the source gives them in different places.

What was measured:
[1] = tested on: Acinetobacter baumannii/haemolyticus: Multidrug-resistant clinical isolate (AB-3167); test: MIC determination (CLSI), AB-3167; assay type: cell-based; conditions: Acinetobacter baumannii/haemolyticus multidrug-resistant clinical isolate; overnight incubation; lower of duplicate values; read-out: AB-3167 (MIC)
Protocol: (§1) The in vitro antibacterial activity of compounds described in the Examples was evaluated by minimum inhibitory concentration (MIC) testing according to Clinical and Laboratory Standards Institute (CLSI) Guidelines. See: Clinical and Laboratory Standards Institute. Methods for Dilution Antimicrobial Susceptibility Tests for Bacteria that Grow Aerobically; Approved Standard-Eighth Edition. CLSI document M7-A8 [ISBN 1-56238-689-1]. Clinical and Laboratory Standards Institute, 940 West Valley Road, Suite 1400, Wayne, Pa. 19087-1898 USA, 2006; also Clinical and Laboratory Standards Institute. Performance Standards for Antimicrobial Susceptibility Testing; Twentieth Informational Supplement. CLSI document M100-S20 [ISBN1-56238-716-2]. Clinical and Laboratory Standards Institute.
(§2) The MIC determination is a standard laboratory method for evaluating the antibacterial activity of a compound. The MIC represents the lowest drug concentration that inhibits visible growth of bacteria following overnight incubation. […] Typically, the drug concentration range is broken down into 2-fold increments (e.g. 0.06 μg/mL, 0.12 μg/mL. 0.25 μg/mL, 0.50 μg/mL, 1.0 μg/mL, etc.) and the various drug concentrations are all individually incubated overnight with approximately the same number of bacteria. The MIC is then determined by visually inspecting the drug effect at each concentration, and identifying the lowest drug concentration that has inhibited bacterial growth as compared to the drug free control. Typically, bacteria continue to grow at drug concentrations lower than the MIC and don't grow at concentrations at and above the MIC.
(§3) The MIC values described in Tables 2 and 3 below were derived from assays wherein each test compound was evaluated in duplicate. In cases where the duplicate values varied by 0-2-fold, the lower of the two values was reported below. Generally speaking, if the duplicate values varied by more than 2-fold, the assay was considered non-valid and was repeated until the variation between duplicate runs was ≦2-fold. In line with the CLSI guidelines referred to above, both control organisms and reference compounds were utilized in each MIC assay to provide proper quality control. MIC values generated with these control organisms and reference compounds were required to fall within a defined range for the assay to be considered valid and be included herein. Those skilled in the art will recognize that MIC values can and do vary from experiment to experiment. Generally speaking, it should be recognized that MIC values often vary +/−2-fold from experiment to experiment. While a single MIC is reported for each compound and each microorganism, the reader should not conclude that each compound was only tested once. Several of the compounds were subjected to multiple tests. The data reported in Tables 2 and 3 is reflective of the compounds relative activity and different MICs may have been generated on these occasions in line with the guidelines described above.
(§4) The following bacterial strains were used in these MIC determinations:
(1) Acinetobacter baumannii/haemolyticus: Multidrug-resistant clinical isolate labeled as AB-3167 in Table 5;

[2] = tested on: Escherichia coli EC-1: VOGEL, mouse virulent; test: MIC determination (CLSI), EC-1; assay type: cell-based; conditions: Escherichia coli, read-out: EC-1 (MIC)
Protocol: as §1, §2, §3, §4
(2) Escherichia coli EC-1: VOGEL, mouse virulent labeled as EC-1 in Table 5;

[3] = target: T1, Pseudomonas aeruginosa LpxC enzyme (Pseudomonas aeruginosa, UniProt P47205); test: IC50 assay, LpxC enzyme from P. aeruginosa (BioTrove RapidFire mass spectrometry); assay type: biochemical
T1 construct: made in house; host or cells: E. coli
T1 sequence (P47205 1-303): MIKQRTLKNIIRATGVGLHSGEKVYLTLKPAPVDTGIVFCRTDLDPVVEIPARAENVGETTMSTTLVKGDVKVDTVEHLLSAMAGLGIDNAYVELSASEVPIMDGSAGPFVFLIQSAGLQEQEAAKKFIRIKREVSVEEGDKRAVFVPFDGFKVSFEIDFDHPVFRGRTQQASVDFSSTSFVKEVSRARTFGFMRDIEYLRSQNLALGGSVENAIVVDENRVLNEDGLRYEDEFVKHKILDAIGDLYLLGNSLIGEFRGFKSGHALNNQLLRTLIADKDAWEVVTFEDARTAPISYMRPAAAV
Protocol: In order to assess the compounds biological activity, selected in-vitro assays were conducted on selected compounds of Formula I. One of the assays measured the compounds ability to disrupt the synthesis of lipopolysaccharide, LPS, which is a component of the outer membrane of Gram-negative bacteria. Disruption of this synthesis is lethal to the bacteria. The assay determined the compound's ability to inhibit LpxC, which is the first enzyme in the biosynthetic pathway for LPS (measured as IC50). Additionally, MICs (minimal inhibitory concentrations) were determined for several bacteria. The specific protocols are described below:
A) IC50 Assay, LpxC Enzyme from P. Aeruginosa Labeled as PA LpxC Enzyme IC50):
At the end of 1 hour, 5 ul of 1 N HCl was added to stop the enzyme reaction, the plates were centrifuged, and then processed with the BioTrove Rapidfire HTMS Mass Spectrometry System. A no-enzyme control was used in calculating the IC50 values from the percent conversion values.

[4] = tested on: Klebsiella pneumoniae: Ciprofloxacin-resistant isolate, expresses ESBL, clinical isolate (KP-3700); test: MIC determination (CLSI), KP-3700; assay type: cell-based; conditions: overnight incubation, lower of duplicate values
Protocol: as §1, §2, §3, §4
(3) Klebsiella pneumoniae: Ciprofloxacin-resistant isolate, expresses extended-spectrum beta-lactamases (ESBL), clinical isolate, labeled as KP-3700 in Table 5.

[5] = tested on: Pseudomonas aeruginosa UI-18: Wild-type (PA-7); test: MIC determination (CLSI), PA-7; assay type: cell-based; conditions: Pseudomonas aeruginosa UI-18 wild-type; overnight incubation; lower of duplicate values; read-out: PA-7 (MIC)
Protocol: as §1, §2, §3, §4
(4) Pseudomonas aeruginosa UI-18: Wild-type, labeled as PA-7 in Table 5;

[6] = P. aeruginosa LpxC enzyme 0.1 nM, 25° C., 1 hour, pH 8.0, read-out: PA: IC50

CC(C)(C)c1cccc(OCc2cn(CCC(C)(C(=O)NO)S(C)(=O)=O)nn2)c1 (stereo not shown) [Example 35, 4-{4-[(3-t-butylphenoxy)methyl]-1H-1,2,3-triazol-1-yl}-N-hydroxy-2-methyl-2-(methylsulfonyl)butanamide]
MIC [1]: > 64 µg/mL | MIC [2]: > 64 µg/mL | IC50 [3, 6]: 24 nM | KP-3700 (MIC) [4]: >64.0 µg/mL | MIC [5]: > 64 µg/mL

CSc1cccc(OCc2cn(CCC(C)(C(=O)NO)S(C)(=O)=O)nn2)c1 (stereo not shown) [Example 36, N-hydroxy-2-methyl-4-(4-{[3-(methylsulfanyl)phenoxy]methyl}-1H-1,2,3-triazol-1-yl)-2-(methylsulfonyl)butanamide]
MIC [1]: > 64 µg/mL | MIC [2]: > 64 µg/mL | IC50 [3, 6]: 6.39 nM | KP-3700 (MIC) [4]: >64.0 µg/mL | MIC [5]: 32 µg/mL (≈ 77.2 µM)

Cc1ccc(-c2cn(CCC(C)(C(=O)NO)S(C)(=O)=O)nn2)cc1 (stereo not shown) [Example 37, N-hydroxy-2-methyl-4-[4-(4-methylphenyl)-1H-1,2,3-triazol-1-yl]-2-(methylsulfonyl)butanamide]
MIC [1]: > 64 µg/mL | MIC [2]: 16 µg/mL (≈ 45.4 µM) | IC50 [3]: 1.39 nM | KP-3700 (MIC) [4]: 64 µg/mL | MIC [5]: 4 µg/mL (≈ 11.4 µM)

CC(CCn1cc(-c2ccccc2Br)nn1)(C(=O)NO)S(C)(=O)=O (stereo not shown) [Example 38, 4-[4-(2-bromophenyl)-1H-1,2,3-triazol-1-yl]-N-hydroxy-2-methyl-2-(methylsulfonyl)butanamide]
MIC [1]: > 64 µg/mL | MIC [2]: 16 µg/mL (≈ 38.3 µM) | IC50 [3, 6]: 18.9 nM | KP-3700 (MIC) [4]: >64.0 µg/mL | MIC [5]: 32 µg/mL (≈ 76.7 µM)

Cc1ccc(C)c(OCc2cn(CCC(C)(C(=O)NO)S(C)(=O)=O)nn2)c1 (stereo not shown) [Example 39, 4-{4-[(2,5-dimethylphenoxy)methyl]-1H-1,2,3-triazol-1-yl}-N-hydroxy-2-methyl-2-(methylsulfonyl)butanamide]
MIC [1]: > 64 µg/mL | MIC [2]: > 64 µg/mL | IC50 [3, 6]: 51.3 nM | KP-3700 (MIC) [4]: >64.0 µg/mL | MIC [5]: > 64 µg/mL

CC(CCn1cc(-c2ccccc2)cn1)(C(=O)NO)S(C)(=O)=O (stereo not shown) [Example 40, N-hydroxy-2-methyl-2-(methylsulfonyl)-4-(4-phenyl-1H-pyrazol-1-yl)butanamide]
MIC [1]: > 64 µg/mL | MIC [2]: 32 µg/mL (≈ 94.8 µM) | IC50 [3]: 4.63 nM | KP-3700 (MIC) [4]: >64.0 µg/mL | MIC [5]: 2 µg/mL (≈ 5.93 µM)

Cc1ccc(-c2cnn(CCC(C)(C(=O)NO)S(C)(=O)=O)c2)cc1 (stereo not shown) [Example 41, N-hydroxy-2-methyl-4-[4-(4-methylphenyl)-1H-pyrazol-1-yl]-2-(methylsulfonyl)butanamide]
MIC [1]: > 64 µg/mL | MIC [2]: 8 µg/mL (≈ 22.8 µM) | IC50 [3, 6]: 1.26 nM | KP-3700 (MIC) [4]: 64 µg/mL | MIC [5]: 2 µg/mL (≈ 5.69 µM)

Cc1cccc(-c2cnn(CCC(C)(C(=O)NO)S(C)(=O)=O)c2)c1 (stereo not shown) [Example 42, N-hydroxy-2-methyl-4-[4-(3-methylphenyl)-1H-pyrazol-1-yl]-2-(methylsulfonyl)butanamide]
MIC [1]: > 64 µg/mL | MIC [2]: 64 µg/mL (≈ 182 µM) | IC50 [3, 6]: 6.2 nM | KP-3700 (MIC) [4]: >64.0 µg/mL | MIC [5]: 4 µg/mL (≈ 11.4 µM)

Cc1ccccc1-c1cnn(CCC(C)(C(=O)NO)S(C)(=O)=O)c1 (stereo not shown) [Example 43, N-hydroxy-2-methyl-4-[4-(2-methylphenyl)-1H-pyrazol-1-yl]-2-(methylsulfonyl)butanamide]
MIC [1]: > 64 µg/mL | MIC [2]: 32 µg/mL (≈ 91.1 µM) | IC50 [3, 6]: 11.3 nM | KP-3700 (MIC) [4]: >64.0 µg/mL | MIC [5]: 16 µg/mL (≈ 45.5 µM)

CC(CCn1cc(-c2cccc(O)c2)cn1)(C(=O)NO)S(C)(=O)=O (stereo not shown) [Example 44, N-hydroxy-4-[4-(3-hydroxyphenyl)-1H-pyrazol-1-yl]-2-methyl-2-(methylsulfonyl)butanamide]
MIC [1]: > 64 µg/mL | MIC [2]: > 64 µg/mL | IC50 [3, 6]: 21.1 nM | KP-3700 (MIC) [4]: >64.0 µg/mL | MIC [5]: > 64 µg/mL

CC(CCn1cc(-c2ccccc2F)cn1)(C(=O)NO)S(C)(=O)=O (stereo not shown) [Example 45, 4-[4-(2-fluorophenyl)-1H-pyrazol-1-yl]-N-hydroxy-2-methyl-2-(methylsulfonyl)butanamide]
MIC [1]: > 64 µg/mL | MIC [2]: 16 µg/mL (≈ 45 µM) | IC50 [3, 6]: 2.5 nM | KP-3700 (MIC) [4]: 64 µg/mL | MIC [5]: 2 µg/mL (≈ 5.63 µM)

CC(CCn1cc(-c2ccccc2C#N)cn1)(C(=O)NO)S(C)(=O)=O (stereo not shown) [Example 46, 4-[4-(2-cyanophenyl)-1H-pyrazol-1-yl]-N-hydroxy-2-methyl-2-(methylsulfonyl)butanamide]
MIC [1]: > 64 µg/mL | MIC [2]: 4 µg/mL (≈ 11 µM) | IC50 [3, 6]: 72.5 nM | KP-3700 (MIC) [4]: >64.0 µg/mL | MIC [5]: 32 µg/mL (≈ 88.3 µM)

CC(CCn1cc(-c2ccc(C#N)cc2)cn1)(C(=O)NO)S(C)(=O)=O (stereo not shown) [Example 47, 4-[4-(4-cyanophenyl)-1H-pyrazol-1-yl]-N-hydroxy-2-methyl-2-(methylsulfonyl)butanamide]
MIC [1]: > 64 µg/mL | MIC [2]: 64 µg/mL (≈ 177 µM) | IC50 [3, 6]: 1.15 nM | KP-3700 (MIC) [4]: >64.0 µg/mL | MIC [5]: 4 µg/mL (≈ 11 µM)

CC(CCn1cc(-c2cccc(C#N)c2)cn1)(C(=O)NO)S(C)(=O)=O (stereo not shown) [Example 48, 4-[4-(3-cyanophenyl)-1H-pyrazol-1-yl]-N-hydroxy-2-methyl-2-(methylsulfonyl)butanamide]
MIC [1]: > 64 µg/mL | MIC [2]: > 64 µg/mL | IC50 [3, 6]: 29.3 nM | KP-3700 (MIC) [4]: >64.0 µg/mL | MIC [5]: 64 µg/mL (≈ 177 µM)

Cc1cc(O)ccc1-c1cnn(CCC(C)(C(=O)NO)S(C)(=O)=O)c1 (stereo not shown) [Example 49, N-hydroxy-4-[4-(4-hydroxy-2-methylphenyl)-1H-pyrazol-1-yl]-2-methyl-2-(methylsulfonyl)butanamide]
MIC [1]: > 64 µg/mL | MIC [2]: > 64 µg/mL | IC50 [3, 6]: 90.4 nM | KP-3700 (MIC) [4]: >64.0 µg/mL | MIC [5]: > 64 µg/mL

Cc1cc(-c2cnn(CCC(C)(C(=O)NO)S(C)(=O)=O)c2)ccc1O (stereo not shown) [Example 50, N-hydroxy-4-[4-(4-hydroxy-3-methylphenyl)-1H-pyrazol-1-yl]-2-methyl-2-(methylsulfonyl)butanamide]
MIC [1]: > 64 µg/mL | MIC [2]: > 64 µg/mL | IC50 [3, 6]: 44.4 nM | KP-3700 (MIC) [4]: >64.0 µg/mL | MIC [5]: > 64 µg/mL

COc1cccc(-c2cnn(CCC(C)(C(=O)NO)S(C)(=O)=O)c2)c1 (stereo not shown) [Example 51, N-hydroxy-4-[4-(3-methoxyphenyl)-1H-pyrazol-1-yl]-2-methyl-2-(methylsulfonyl)butanamide]
MIC [1]: > 64 µg/mL | MIC [2]: > 64 µg/mL | IC50 [3, 6]: 7.3 nM | KP-3700 (MIC) [4]: >64.0 µg/mL | MIC [5]: 16 µg/mL (≈ 43.5 µM)
